Source: patent US6218112A, “Optimization of gene delivery and gene delivery system” (Cobra Therapeutics Limited, priority 1997, dated 2001)
Where two headings read alike, the source gives them in different places. * marks the point of attachment. Acm = CC(=O)NC*

Tests used:
[1] = test system: plasmid nucleic acid pRSVLuc; assay: Surface plasmon resonance (BIAcore) binding kinetics of peptides/conjugates to immobilized biotinylated plasmid DNA; details: for ka: apparent rate constant for association; for Kd: read-out: equilibrium dissociation constant KD
Jurkat cell line = assay: In vitro transfection with pRSVLuc (luciferase) condensed on peptides; type: cell-based; details: peptide 2 μg/μg plasmid DNA, luciferase after 24 h, FIG. 7
Protocol: After incubation the cells are lysed and are assayed for gene expression. In the case of the luciferase reporter gene, luciferin and ATP are added to lysed cells and the light emitted is measured with a luminometer (see deWet et al., supra).
Cell lines such as Jurkat and K562 grow in suspension and can be transfected and the level of transgene expression (luciferase activity) determined b) the following method. Cells are harvested on the day of assay by centrifugation at 1200 rpm for 5 mins at room temperature. The cell pellet is resuspended in phosphate buffered saline and re-centrifuged. This operation is performed twice. […] The cells are then aliquoted into tubes and 0.75 ml of RPMI medium added, followed by 0.04-0.08 ml of 100 mM Chloroquine and finally 0.25 ml of DNA-complex solution. The transfection is then allowed to proceed by incubating the cells at 37° C. for 4 h. After this time the cells are harvested by centrifugation at 2000 rpm. The cells are then suspended in 1 ml of RPMI medium and re-centrifuged. Finally the cells are suspended in 0.5 ml RPMI medium containing 10% foetal bovine serum. Each 0.5 ml of transfected cell suspension is transferred to a well of a 12 well plastic culture plate containing 1.5 ml of RPMI 10% FBS. The original transfection tube is rinsed with a further 1 ml of medium and the wash transferred to the culture dish making a final volume of 3 ml. The culture plate is then incubated at 37° C. for 24-90 h in an atmosphere of 5% CO2. The contents of each well in the culture dish are transferred to centrifuge tubes and the cells collected by centrifugation at 13000 rpm. The pellet is resuspended in 0.12 ml of Lysis Buffer (100 mM sodium phosphate, pH 7.8; 8 mM magnesium chloride, 1 mM EDTA; 1% Triton X-100 and 15% glycerol) and agitated with a pipette. The lysate is centrifuged at 13000 rpm for 1 min and the supernatant collected. 80 μl of the supernatant are transferred to a luminometer tube. The luciferase activity is then assayed using a Berthold Lumat L9501 luminometer. The assay buffer used is Lysis Buffer containing 10 mM Luciferin and 100 mM ATP. Light produced by the luciferase is integrated over 4s and is described as relative light units (RLU). The data are converted to RLU/ml of lysate, RLU/cell or RLU/mg protein (protein concentration of the lysate having been determined in this case by the BioRAD Lowry assay.
In order to compare the relative efficiency of transfection of complexes composed of different NBC condensation peptides or poly-L-lysine, pRSVLuc DNA at a concentration of 100 μg/ml was condensed using peptide at a ratio of 2 μg/μg plasmid DNA as described herein with the following deviation: prior to addition to the cells (Jurkat cell line) the complexes were diluted to 20 μg/ml with 10% PEG 10 000; 37 mM sodium chloride; 25 mM sodium phosphate, pH 7.4. The cells were assayed for luciferase after 24 h.

Kd ([1]; approximate value, unit inferred) [nM] | association reaction ([1]; shape of association kinetics) | Substance | ka ([1]; SPR, PBS, 25° C.) [M⁻¹ s⁻¹] | kd ([1]; apparent rate constant for dissociation, SPR, PBS, 25° C.) [s⁻¹] | apparent dissociation constant kd ([1]; approximate values) | Kd ([1]; approximate values) [nM] | rank in order of relative transfection efficiency (most to least efficient) (Jurkat cell line)
– | – | NH2-KKSPKKAKKPAAKKSPKKAKKPAYC(Acm)-COOH (H-KKSPKKAKKPAAKKSPKKAKKPAYC(Acm)-OH; SMILES CC(=O)NCSC[C@H](NC(=O)[C@H](Cc1ccc(O)cc1)NC(=O)[C@H](C)NC(=O)[C@@H]1CCCN1C(=O)[C@H](CCCCN)NC(=O)[C@H](CCCCN)NC(=O)[C@H](C)NC(=O)[C@H](CCCCN)NC(=O)[C@H](CCCCN)NC(=O)[C@@H]1CCCN1C(=O)[C@H](CO)NC(=O)[C@H](CCCCN)NC(=O)[C@H](CCCCN)NC(=O)[C@H](C)NC(=O)[C@H](C)NC(=O)[C@@H]1CCCN1C(=O)[C@H](CCCCN)NC(=O)[C@H](CCCCN)NC(=O)[C@H](C)NC(=O)[C@H](CCCCN)NC(=O)[C@H](CCCCN)NC(=O)[C@@H]1CCCN1C(=O)[C@H](CO)NC(=O)[C@H](CCCCN)NC(=O)[C@@H](N)CCCCN)C(=O)O) [NBC8] | 50000 | 0.06248 | approximately 1×10^-2 sec^-1 | ~1000 | NBC11>NBC13>NBC8>>NBC15>>>polylysine
~0.5 | clear biphasic kinetics | NH2-TKKAWKKAEKKAAKKCGVSAKKAAKKAWKKA-CONH2 (H-TKKAWKKAEKKAAKKCGVSAKKAAKKAWKKA-NH2) [NBC11] | 20700 | – | approximately 1.6×10^-4 sec^-1 | – | NBC11>NBC13>NBC8>>NBC15>>>polylysine
